Source: PMC3586668 (PLoS ONE, 2013)
Where two headings read alike, the source gives them in different places. One block for each molecule: values may come before it.

Experiments:
Caco-2 monolayers [1] = tested on: Caco-2 monolayers
Description: (§2) Human colorectal adenocarcinoma Caco-2 cell line (HTB-37) obtained from American Type culture Collection (ATCC) (Manassas, VA, USA) was used for all experiments. Cell lines were maintained as per the provider's protocol. Cell culture was performed in Hyclone® DMEM high glucose medium (Thermo Fisher Scientific, Pittsburgh, PA, USA) supplemented with 50 IU/ml of penicillin, 50 mg/L of streptomycin, and 100 ml/L of fetal bovine serum at 37°C in a humidity-controlled 5% CO2 cell culture incubator. Cells were split at a ratio of 1∶3 after reaching 90% confluence. All transwell experiments were performed with cells between 5th–14th passages due to possible phenotypic differences between cells from high and low passage intervals. Cells were cultivated for at least 2 passages before seeding onto transwell filter supports to stabilize the cell phenotype 12].
(§3) Transwell experiments were performed with slight modifications to the protocols provided by the manufacturer (BD Biosciences, Bedford, MA, USA). For the development of the transwell assay system for permeability experiments, Caco-2 cells were seeded onto fibrillar collagen coated polyethylene terephthalate (PET) filter supports (1 µm pore size) of BD Biocoat™ HTS Caco-2 assay system (BD Biosciences, Bedford, MA, USA) according to manufacturer's protocol with slight modifications. Briefly, Caco-2 cells were seeded onto the filter supports at a concentration of 200,000 cells/insert (6.6×10^5 cells/cm^2) using basal seeding medium (with MITO+ serum extender) provided in the HTS system, and were incubated in cell culture incubator (37°C, 5% CO2). Cells were fed from both sides using the Multiwell feeder tray. After 24 hrs, the feeding medium was replaced with MITO+ serum extender supplemented Entero-STIM medium, and growing monolayers were incubated as described earlier. Upon incubation for 48–72 hrs, Caco-2 cells developed a tight junction monolayer, integrity of which was determined by TEER measurements.
(§4) The integrity of Caco-2 monolayer was determined by measuring the transepithelial electrical resistance (TEER) of the cell monolayer grown on filter supports using Millicell-ERS electrical resistance measuring system (Millipore, Bedford, MA) using chopstick electrodes. Briefly, the Caco-2 inserts were transferred to a 24-well culture plate with 1400 µl medium in the feeding well, and 500 µl in culture inserts. The electrodes were immersed in a way that shorter electrode was in the insert and longer electrode in the outer well. […] Based on the literature, a resistance reading of 150–200 Ω.cm^2 was considered as indicative of a confluent Caco-2 monolayer with tight junctions.
(§5) Briefly, cells were pre-conditioned with basal seeding medium for 30 minutes before starting the experiment at 37°C. […] The basolateral chamber consisted 1400 µl of the same growth medium as per manufacturer's protocol. The plates were incubated for 5 hrs at room temperature with gentle shaking (5 rocks/minute on a rocker, so as to mimic intestinal peristaltic movement). TEER measurements were performed at predetermined time intervals (0. 0.25, 0.5, 1, 2, 3, and 5 hrs). At the same time-points, 100 µl samples were withdrawn from the basolateral chamber to quantify the total amount of FITC-ins/sulforhodamine-B transported across the monolayer. The withdrawn sample was immediately replaced with equivalent amount of the experimental medium.
(§6) The apparent permeability coefficients (Papp) of all polypeptides were calculated using the following equation 19]: [drawing 1]
(§7) Where dQ/dt is the amount of solutes transported across the Caco-2 barrier in time dt, C0 is the solute concentration in apical compartment at time zero, and A is the cross-sectional area of the epithelium in contact with apical solution. Total percent drug transport was calculated by dividing the cumulative amount of molecules transported with the original loading concentrations.

Caco-2 monolayers [2] = assay: Polypeptide transport across 3-day Caco-2 monolayers (ELISA); assay type: in vitro ADME, Human; settings: 3-day Caco-2, apical-to-basolateral, room temperature, mean±SD n = 3; for Total amount transported to the basolateral side: 5 h
Description: (§1) Transport of three different macromolecular pharmaceutical peptides was studied across the Caco-2 monolayers at different loading concentrations. […] Different doses were selected for different polypeptides based upon the values reported in literature to not only approach therapeutic efficacy but also to provide a valid comparison with the results obtained in 21-day monolayer system. Polypeptides were incubated with Caco-2 monolayers for 5 hrs at room temperature with gentle shaking. TEER measurements were performed and samples were collected from basolateral chambers of the Caco-2 plates to determine total drug transport and apparent permeability at different concentrations.

[3] = as above; assay type: in vitro ADME, Human; settings: human, 3-day Caco-2, apical-to-basolateral, room temperature, gentle shaking, mean±SD n = 3, read-out: Apparent Permeability (Papp)
Description: as §1

rat jejunum = tested on: rat jejunum; set-up: method as in 2 sources, ref 33 = [33]; PMID 21501675; doi:10.1016/j.ijpharm.2011.04.003; 33 Woitiski CB , Sarmento B , Carvalho RA , Neufeld RJ , Veiga F ( 2011 ) Facilitated nanoscale delivery of insulin across intestinal membrane models . Int J Pharm 412 : 123 – 131 . 21501675 10.1016/j ||| ref 36 = [36]; PMID 10227707; doi:10.1023/a:1018819012405; 36 Sinko PJ , Lee YH , Makhey V , Leesman GD , Sutyak JP , et al ( 1999 ) Biopharmaceutical approaches for developing and assessing oral peptide delivery strategies and systems: in vitro permeability; settings: cited from earlier work
Caco-2 monolayers [4] = assay: Validation of 3-day Caco-2 transwell system: FITC-insulin and sulforhodamine-B transport (fluorescence); settings: for Apparent Permeability (Papp) / % Transport in 5 hours / Cumulative amount transported to basolateral chamber: room temperature, fluorescence, mean±SD n = 3; for Apparent Permeability (Papp): gentle shaking; for Cumulative amount transported to basolateral chamber: after 5 h
Description: as §2, §3, §4, §5, §6, §7

[5] = apical loading 0.005 mg (5 µg/well)
[6] = apical loading 0.024 mg (24 µg/well)

Molecule: FITC-Insulin: fluorescein isothiocynate conjugated bovine insulin (Sigma Aldrich)
Apparent permeability coefficients (Papp), range over the loadings studied (Caco-2 monolayers [1]): 8.2±1.8-10.5±1.8
Effect on Caco-2 monolayer integrity during transport (Caco-2 monolayers [1]): without damaging the monolayer

Total amount transported to the basolateral side (Caco-2 monolayers [2]; apical loading 5 µg/well): 55 ± 2 ng
% Transport in 5 hours (Caco-2 monolayers [2]; [5]): 1.1±0.04%
% Transport in 5 hours (Caco-2 monolayers [2]; [6]): 0.8±0.4%
Total amount transported to the basolateral side (Caco-2 monolayers [2]; apical loading 24 µg/well): 192 ± 95 ng
Papp A→B at 5 h, 5 µg/well [3, 5]: 2 ± 0.07 ×10⁻⁶ cm/s
Papp A→B at 5 h, 24 µg/well [3, 6]: 1.5 ± 0.7 ×10⁻⁶ cm/s
Molecule: CC(C)C[C@H](NC(=O)[C@H](CCCCN)NC(=O)CNC(=O)[C@H](CC(C)C)NC(=O)[C@@H](NC(=O)[C@@H]1CSSC[C@H](N)C(=O)N[C@@H](CO)C(=O)N[C@@H](CC(N)=O)C(=O)N[C@@H](CC(C)C)C(=O)N[C@@H](CO)C(=O)N[C@@H]([C@@H](C)O)C(=O)N1)C(C)C)C(=O)N[C@@H](CO)C(=O)N[C@@H](CCC(N)=O)C(=O)N[C@@H](CCC(=O)O)C(=O)N[C@@H](CC(C)C)C(=O)N[C@@H](Cc1c[nH]cn1)C(=O)N[C@@H](CCCCN)C(=O)N[C@@H](CC(C)C)C(=O)N[C@@H](CCC(N)=O)C(=O)N[C@H](C(=O)N[C@@H](Cc1ccc(O)cc1)C(=O)N1CCC[C@H]1C(=O)N[C@@H](CCCNC(=N)N)C(=O)N[C@H](C(=O)N[C@@H](CC(N)=O)C(=O)N[C@H](C(=O)NCC(=O)N[C@@H](CO)C(=O)NCC(=O)N[C@H](C(=O)N1CCC[C@H]1C(N)=O)[C@@H](C)O)[C@@H](C)O)[C@@H](C)O)[C@@H](C)O [Salmon Calcitonin]
Permeability through rat jejunum (rat jejunum): 1.9±0.5 ×10^−6 cm/sec

Apparent Permeability (Papp) (Caco-2 monolayers [4]; 3-day Caco-2 (BD Biocoat HTS, serum-free), apical-to-basolateral, apical loading 0.05 mg/well in 500 µl basal seeding medium, 30 min pre-conditioning, 5 h): 5.0±2.9 10^−6 cm/s
% Transport in 5 hours (Caco-2 monolayers [4]; 3-day Caco-2, apical-to-basolateral, apical loading 0.05 mg/well, 5 h): 2.8±1.6%
Cumulative amount transported to basolateral chamber (Caco-2 monolayers [4]; 3-day Caco-2, apical-to-basolateral, apical loading 0.05 mg/well): 0.002 ± 0.0008 mg
Apparent Permeability (Papp) (Caco-2 monolayers [4]; 3-day Caco-2, apical-to-basolateral, apical loading 0.3 mg/well in 500 µl, 5 h): 5.3±0.8 10^−6 cm/s
% Transport in 5 hours (Caco-2 monolayers [4]; 3-day Caco-2, apical-to-basolateral, apical loading 0.3 mg/well, 5 h): 2.9±0.4%
Cumulative amount transported to basolateral chamber (Caco-2 monolayers [4]; 3-day Caco-2, apical-to-basolateral, apical loading 0.3 mg/well): 0.009 ± 0.001 mg
Apparent Permeability (Papp) (Caco-2 monolayers [4]; 3-day Caco-2, apical-to-basolateral, apical loading 0.6 mg/well in 500 µl, 5 h): 4.0±0.6 10^−6 cm/s
% Transport in 5 hours (Caco-2 monolayers [4]; 3-day Caco-2, apical-to-basolateral, apical loading 0.6 mg/well, 5 h): 2.3±0.4%
Cumulative amount transported to basolateral chamber (Caco-2 monolayers [4]; 3-day Caco-2, apical-to-basolateral, apical loading 0.6 mg/well): 0.01 ± 0.002 mg
Apparent Permeability (Papp) (Caco-2 monolayers [4]; 3-day Caco-2, apical-to-basolateral, apical loading […] in 500 µl, 5 h): 4.9±0.9 10^−6 cm/s
Effect on Caco-2 monolayer integrity during transport (Caco-2 monolayers [4]; 3-day Caco-2, different loading concentrations, 5 h, TEER): without damaging the monolayer
Molecule: CCN(CC)c1ccc2c(-c3ccc(S(=O)(=O)O)cc3S(=O)(=O)[O-])c3ccc(=[N+](CC)CC)cc-3oc2c1 [Sulforhodamine-B, sulforhodamine B]
